# Test results reported in patent US9707229B2, “Compositions and methods for treating an infection” (CMPD LICENSING, LLC, priority 2015, dated 2017).
# Tests used:
# Type in all cases: cell-based
# Bacteroides fragilis = test: Expected efficacy of antibiotic agents; settings: Gram: anaer
# Clostridium difficile = test: Expected efficacy of antibiotic agents; settings: Gram: anaer
# Clostridium perfringens = settings: expected efficacy; Gram: anaer
# Chlamydia pneumoniae = test: Expected efficacy of antibiotic agents; settings: Gram: n/a
# Chlamydia psittaci = settings: expected efficacy; Gram: n/a
# Chlamydia trachomatis = test: Expected efficacy of antibiotic agents; settings: Gram: n/a
# Mycoplasma pneumoniae = test: Expected efficacy of antibiotic agents; settings: Gram: n/a
# Acinetobacter baumannii = test: Expected efficacy of antibiotic agents; settings: Gram: neg
# [1] = tested on: Acinetobacter calcoaceticus; test: Expected efficacy of antibiotic agents; settings: Gram: neg
# Acinetobacter lwoffii = test: Expected efficacy of antibiotic agents; settings: Gram: neg
# Bordetella pertussis = test: Expected efficacy of antibiotic agents; settings: Gram: neg
# Campylobacter jejuni = test: Expected efficacy of antibiotic agents; settings: Gram: neg
# Citrobacter diversus = test: Expected efficacy of antibiotic agents; settings: Gram: neg
# Citrobacter freundii = test: Expected efficacy of antibiotic agents; settings: Gram: neg
# Enterobacter aerogenes = test: Expected efficacy of antibiotic agents; settings: Gram: neg
# Enterobacter cloacae = test: Expected efficacy of antibiotic agents; settings: Gram: neg
# Enterobacter sakazakii = test: Expected efficacy of antibiotic agents; settings: Gram: neg
# Escherichia coli = test: Expected efficacy of antibiotic agents; settings: Gram: neg
# Francisella tularensis = settings: expected efficacy; Gram: neg
# Haemophilus ducreyi = test: Expected efficacy of antibiotic agents; settings: Gram: neg
# Haemophilus influenzae = test: Expected efficacy of antibiotic agents; settings: Gram: neg
# [2] = tested on: Haemophilus parainfluenzae; test: Expected efficacy of antibiotic agents; settings: Gram: neg
# [3] = tested on: Klebsiella (Calymmatobacterium) granulomatis; test: Expected efficacy of antibiotic agents; settings: Gram: neg
# Klebsiella oxytoca = test: Expected efficacy of antibiotic agents; settings: Gram: neg
# Klebsiella pneumoniae = test: Expected efficacy of antibiotic agents; settings: Gram: neg
# Legionella pneumophila = settings: expected efficacy; Gram: neg
# Moraxella catarrhalis = test: Expected efficacy of antibiotic agents; settings: Gram: neg
# Morganella morganii = test: Expected efficacy of antibiotic agents; settings: Gram: neg
# Neisseria gonorrhoeae = test: Expected efficacy of antibiotic agents; settings: Gram: neg
# Neisseria meningitidis = test: Expected efficacy of antibiotic agents; settings: Gram: neg
# Proteus mirabilis = test: Expected efficacy of antibiotic agents; settings: Gram: neg
# Proteus vulgaris = test: Expected efficacy of antibiotic agents; settings: Gram: neg
# Providencia rettgeri = test: Expected efficacy of antibiotic agents; settings: Gram: neg
# Providencia stuartii = test: Expected efficacy of antibiotic agents; settings: Gram: neg
# Pseudomonas aeruginosa = test: Expected efficacy of antibiotic agents; settings: Gram: neg
# Rickettsiae = settings: expected efficacy; Gram: neg
# Salmonella typhi = test: Expected efficacy of antibiotic agents; settings: Gram: neg
# Serratia marcescens = test: Expected efficacy of antibiotic agents; settings: Gram: neg
# Shigella boydii = test: Expected efficacy of antibiotic agents; settings: Gram: neg
# Shigella dysenteriae = test: Expected efficacy of antibiotic agents; settings: Gram: neg
# Shigella flexneri = test: Expected efficacy of antibiotic agents; settings: Gram: neg
# Shigella sonnei = test: Expected efficacy of antibiotic agents; settings: Gram: neg
# Vibrio cholerae = test: Expected efficacy of antibiotic agents; settings: Gram: neg
# Yersinia pestis = settings: expected efficacy; Gram: neg
# Corynebacterium jeikeium = test: Expected efficacy of antibiotic agents; settings: Gram: pos
# [4] = tested on: Corynebacterium urealyticum; test: Expected efficacy of antibiotic agents; settings: Gram: pos
# Diphtheroids = test: Expected efficacy of antibiotic agents; settings: Gram: pos
# Enterococcus faecalis = test: Expected efficacy of antibiotic agents; settings: Gram: pos
# Enterococcus faecium = test: Expected efficacy of antibiotic agents; settings: Gram: pos
# [5] = tested on: Methicillin resistant staph aureus (MRSA); test: Expected efficacy of antibiotic agents; settings: Gram: pos
# Peptostreptococcus = test: Expected efficacy of antibiotic agents; settings: Gram: pos
# [6] = tested on: Staphylococcus aureus (MSSA); test: Expected efficacy of antibiotic agents; settings: Gram: pos
# [7] = tested on: Staphylococcus epidermidis; test: Expected efficacy of antibiotic agents; settings: Gram: pos
# Streptococcus agalactiae = test: Expected efficacy of antibiotic agents; settings: Gram: pos
# Streptococcus pneumoniae = test: Expected efficacy of antibiotic agents; settings: Gram: pos
# Streptococcus pyogenes = test: Expected efficacy of antibiotic agents; settings: Gram: pos
# [8] = tested on: Viridans group streptococci; test: Expected efficacy of antibiotic agents; settings: Gram: pos
# Brucella species = settings: expected efficacy; Gram: neg
# Pseudomonas fluorescens = test: Expected efficacy of antibiotic agents; settings: Gram: neg
molecule,measurement,setting,value
CO/N=C(\C(=O)N[C@@H]1C(=O)N2C(C(=O)O)=C(CSc3nc(=O)c(=O)[nH]n3C)CS[C@H]12)c1csc(N)n1 [Ceftriaxone],efficacy against Bacteroides fragilis,Bacteroides fragilis,yes
same,efficacy against Clostridium difficile,Clostridium difficile,no
same,efficacy against Clostridium perfringens,Clostridium perfringens,yes
same,efficacy against Chlamydia pneumoniae,Chlamydia pneumoniae,no
same,efficacy against Chlamydia psittaci,Chlamydia psittaci,no
same,efficacy against Chlamydia trachomatis,Chlamydia trachomatis,no
same,efficacy against Mycoplasma pneumoniae,Mycoplasma pneumoniae,no
same,efficacy against Acinetobacter baumannii,Acinetobacter baumannii,no
same,efficacy against Acinetobacter calcoaceticus,[1],no
same,efficacy against Acinetobacter lwoffii,Acinetobacter lwoffii,no
same,efficacy against Bordetella pertussis,Bordetella pertussis,no
same,efficacy against Campylobacter jejuni,Campylobacter jejuni,no
same,efficacy against Citrobacter diversus,Citrobacter diversus,yes
same,efficacy against Citrobacter freundii,Citrobacter freundii,yes
same,efficacy against Enterobacter aerogenes,Enterobacter aerogenes,yes
same,efficacy against Enterobacter cloacae,Enterobacter cloacae,yes
same,efficacy against Enterobacter sakazakii,Enterobacter sakazakii,yes
same,efficacy against Escherichia coli,Escherichia coli,yes
same,efficacy against Francisella tularensis,Francisella tularensis,no
same,efficacy against Haemophilus ducreyi,Haemophilus ducreyi,yes
same,efficacy against Haemophilus influenzae,Haemophilus influenzae,yes
same,efficacy against Haemophilus parainfluenzae,[2],yes
same,efficacy against Klebsiella (Calymmatobacterium) granulomatis,[3],yes
same,efficacy against Klebsiella oxytoca,Klebsiella oxytoca,yes
same,efficacy against Klebsiella pneumoniae,Klebsiella pneumoniae,yes
same,efficacy against Legionella pneumophila,Legionella pneumophila,no
same,efficacy against Moraxella catarrhalis,Moraxella catarrhalis,yes
same,efficacy against Morganella morganii,Morganella morganii,yes
same,efficacy against Neisseria gonorrhoeae,Neisseria gonorrhoeae,yes
same,efficacy against Neisseria meningitidis,Neisseria meningitidis,yes
same,efficacy against Proteus mirabilis,Proteus mirabilis,yes
same,efficacy against Proteus vulgaris,Proteus vulgaris,yes
same,efficacy against Providencia rettgeri,Providencia rettgeri,yes
same,efficacy against Providencia stuartii,Providencia stuartii,yes
same,efficacy against Pseudomonas aeruginosa,Pseudomonas aeruginosa,no
same,efficacy against Rickettsiae,Rickettsiae,no
same,efficacy against Salmonella typhi,Salmonella typhi,yes
same,efficacy against Serratia marcescens,Serratia marcescens,yes
same,efficacy against Shigella boydii,Shigella boydii,yes
same,efficacy against Shigella dysenteriae,Shigella dysenteriae,yes
same,efficacy against Shigella flexneri,Shigella flexneri,yes
same,efficacy against Shigella sonnei,Shigella sonnei,yes
same,efficacy against Vibrio cholerae,Vibrio cholerae,no
same,efficacy against Yersinia pestis,Yersinia pestis,no
same,efficacy against Corynebacterium jeikeium,Corynebacterium jeikeium,no
same,efficacy against Corynebacterium urealyticum,[4],no
same,efficacy against Diphtheroids,Diphtheroids,no
same,efficacy against Enterococcus faecalis,Enterococcus faecalis,no
same,efficacy against Enterococcus faecium,Enterococcus faecium,no
same,efficacy against Methicillin resistant staph aureus (MRSA),[5],no
same,efficacy against Peptostreptococcus,Peptostreptococcus,yes
same,efficacy against Staphylococcus aureus (MSSA),[6],yes
same,efficacy against Staphylococcus epidermidis,[7],yes
same,efficacy against Streptococcus agalactiae,Streptococcus agalactiae,yes
same,efficacy against Streptococcus pneumoniae,Streptococcus pneumoniae,yes
same,efficacy against Streptococcus pyogenes,Streptococcus pyogenes,yes
same,efficacy against Viridans group streptococci,[8],yes
Colistimethate,efficacy against Bacteroides fragilis,Bacteroides fragilis,no
same,efficacy against Clostridium difficile,Clostridium difficile,no
same,efficacy against Chlamydia pneumoniae,Chlamydia pneumoniae,no
same,efficacy against Chlamydia psittaci,Chlamydia psittaci,no
same,efficacy against Chlamydia trachomatis,Chlamydia trachomatis,no
same,efficacy against Mycoplasma pneumoniae,Mycoplasma pneumoniae,no
same,efficacy against Bordetella pertussis,Bordetella pertussis,no
same,efficacy against Brucella species,Brucella species,no
same,efficacy against Enterobacter aerogenes,Enterobacter aerogenes,yes
same,efficacy against Enterobacter cloacae,Enterobacter cloacae,yes
same,efficacy against Enterobacter sakazakii,Enterobacter sakazakii,yes
same,efficacy against Escherichia coli,Escherichia coli,yes
same,efficacy against Haemophilus parainfluenzae,[2],no
same,efficacy against Klebsiella (Calymmatobacterium) granulomatis,[3],yes
same,efficacy against Klebsiella oxytoca,Klebsiella oxytoca,yes
same,efficacy against Klebsiella pneumoniae,Klebsiella pneumoniae,yes
same,efficacy against Legionella pneumophila,Legionella pneumophila,no
same,efficacy against Moraxella catarrhalis,Moraxella catarrhalis,no
same,efficacy against Neisseria gonorrhoeae,Neisseria gonorrhoeae,no
same,efficacy against Neisseria meningitidis,Neisseria meningitidis,no
same,efficacy against Proteus mirabilis,Proteus mirabilis,no
same,efficacy against Proteus vulgaris,Proteus vulgaris,no
same,efficacy against Providencia rettgeri,Providencia rettgeri,no
same,efficacy against Providencia stuartii,Providencia stuartii,no
same,efficacy against Pseudomonas aeruginosa,Pseudomonas aeruginosa,yes
same,efficacy against Pseudomonas fluorescens,Pseudomonas fluorescens,yes
same,efficacy against Serratia marcescens,Serratia marcescens,no
same,efficacy against Vibrio cholerae,Vibrio cholerae,no
same,efficacy against Corynebacterium jeikeium,Corynebacterium jeikeium,no
same,efficacy against Corynebacterium urealyticum,[4],no
same,efficacy against Diphtheroids,Diphtheroids,no
same,efficacy against Enterococcus faecalis,Enterococcus faecalis,no
same,efficacy against Enterococcus faecium,Enterococcus faecium,no
same,efficacy against Methicillin resistant staph aureus (MRSA),[5],no
same,efficacy against Peptostreptococcus,Peptostreptococcus,no
same,efficacy against Staphylococcus aureus (MSSA),[6],no
same,efficacy against Staphylococcus epidermidis,[7],no
same,efficacy against Streptococcus agalactiae,Streptococcus agalactiae,no
same,efficacy against Streptococcus pneumoniae,Streptococcus pneumoniae,no
same,efficacy against Streptococcus pyogenes,Streptococcus pyogenes,no
same,efficacy against Viridans group streptococci,[8],no
